Measurements published in patent publication US11229618B2 (Amarin Pharmaceuticals Ireland Limited, priority 2012, dated 2022).

Assay: ANCHOR: RBC fatty acid concentrations, ratios and class proportions (GC/FID)
Type: in vivo, human
Set-up: DHA RBC End-of-treatment / DHA RBC Change from baseline / DPAn-3 RBC End-of-treatment / DPAn-3 RBC Change from baseline / AA RBC End-of-treatment / AA RBC Change from baseline / Stearic RBC End-of-treatment / Stearic RBC Change from baseline / Oleic RBC End-of-treatment / Oleic RBC Change from baseline / Linoleic RBC End-of-treatment / Linoleic RBC Change from baseline: unit not given here
Details: for AA RBC Placebo-adjusted percent change from baseline / DHA RBC Placebo-adjusted percent change from baseline / DPAn-3 RBC Placebo-adjusted percent change from baseline / Linoleic RBC Placebo-adjusted percent change from baseline / Oleic RBC Placebo-adjusted percent change from baseline / Palmitic RBC Placebo-adjusted percent change from baseline / Ratio of AA/EPA RBC Placebo-adjusted percent change from baseline / Ratio of total ω-3/total ω-6 RBC Placebo-adjusted percent change from baseline / Stearic RBC Placebo-adjusted percent change from baseline: week 12, LS mean; for Monounsaturated, proportion of total fatty acids, RBCs, Change from baseline / Saturated, proportion of total fatty acids, RBCs, Change from baseline / Total ω-3, proportion of total fatty acids, RBCs, Change from baseline / Total ω-6, proportion of total fatty acids, RBCs, Change from baseline: LS mean (SE); for AA RBC End-of-treatment / DHA RBC End-of-treatment / DPAn-3 RBC End-of-treatment / Linoleic RBC End-of-treatment / Oleic RBC End-of-treatment / Palmitic RBC End-of-treatment / Ratio of AA/EPA RBC End-of-treatment / Ratio of total ω-3/total ω-6 RBC End-of-treatment / Stearic RBC End-of-treatment: week 12, mean; for Monounsaturated, proportion of total fatty acids, RBCs, End-of-treatment / Saturated, proportion of total fatty acids, RBCs, End-of-treatment / Total ω-3, proportion of total fatty acids, RBCs, End-of-treatment / Total ω-6, proportion of total fatty acids, RBCs, End-of-treatment: week 12, mean (SD)
Protocol: A multi-center, placebo-controlled, randomized, double-blind, 12-week study was performed to evaluate the efficacy and safety of >96% E-EPA in patients with fasting triglyceride levels≥200 mg/dl and <500 mg/dl despite statin therapy (the mean of two qualifying entry values needed to be ≥185 mg/dl and at least one of the values needed to be ≥200 mg/dl). The primary objective of the study was to determine the efficacy of >96% E-EPA 2 g daily and 4 g daily, compared to placebo, in lowering fasting TG levels in patients with high risk for cardiovascular disease and with fasting TG levels≥200 mg/dL and <500 mg/dL, despite treatment to LDL-C goal on statin therapy.
During the double-blind treatment period, patients were to take 2 capsules (>96% E-EPA or matching placebo) in the morning and 2 capsules in the evening for a total of 4 capsules per day. • Patients in the >96% E-EPA 2 g/day treatment group received 1>96% E-EPA 1 g capsule and 1 matching placebo capsule in the morning and in the evening. • Patients in the >96% E-EPA 4 g/day treatment group received 2>96% E-EPA 1 g capsules in the morning and evening. • Patients in the placebo group received 2 matching placebo capsules in the morning and evening.
Lipids were extracted from plasma and red blood cell (“RBC”) suspensions and converted into fatty acid methyl esters for analysis using a standard validated gas chromatography/flame ionization detection method. Fatty acid parameters were compared between EPA treatment groups and placebo using an ANCOVA model with treatment, gender, type of statin therapy, and presence of diabetes as factors, and the baseline parameter value as a covariate. LSMs, SEs, and 2-tailed 95% confidence intervals for each treatment group and for each comparison were determined.
The monounsaturated fatty acid group included myristoleic, palmitoleic, cis-vaccenic, oleic, gondoic/gadoleic, erucic and nervonic acids. The saturated fatty acid group included myristic, palmitic, stearic, arachidic, behenic and lignoceric acids. The “total ω-3” group included α-linolenic, stearidonic, eicosatrienoic, ω-3 arachidonic, eicosapentaenoic, ω-3 docosapentaenoic and docosahecaenoic acids. The “total ω-6” group included linoleic, γ-linolenic, eicosadienoic, dihomo-γ-linolenic, ω-6 arachidonic, adrenic, and ω-6 docosapentaenoic acids. The “total fatty acid” group represented the sum of the monounsaturated, saturated, total ω-3 and total ω-6 groups.

[1] = 2 g/day, baseline to week 12, LS mean (SE)
[2] = 4 g/day, baseline to week 12, LS mean

For `CC/C=C\C/C=C\C/C=C\C/C=C\C/C=C\CCCC(=O)OCC` [IPE, all-cis eicosa-5,8,11,14,17-pentaenoic acid ethyl ester], the “Monounsaturated, proportion of total fatty acids, RBCs, Placebo-adjusted percent change from baseline” value (2 g/day vs placebo) was −0.7%, the “Saturated, proportion of total fatty acids, RBCs, Placebo-adjusted percent change from baseline” value (2 g/day vs placebo) was 1.3% and the “Total ω-3, proportion of total fatty acids, RBCs, Placebo-adjusted percent change from baseline” value (2 g/day vs placebo) was 50.0%. The “Total ω-6, proportion of total fatty acids, RBCs, Placebo-adjusted percent change from baseline” value (2 g/day vs placebo) was −11.3%, the “AA RBC Placebo-adjusted percent change from baseline” value (2 g/day vs placebo) was −11.6% and the “DHA RBC Placebo-adjusted percent change from baseline” value (2 g/day vs placebo) was −5.4%. For the same compound, the “DPAn-3 RBC Placebo-adjusted percent change from baseline” value (2 g/day vs placebo) was 74.9%, the “Linoleic RBC Placebo-adjusted percent change from baseline” value (2 g/day vs placebo) was −2.1% and the “Oleic RBC Placebo-adjusted percent change from baseline” value (2 g/day vs placebo) was 1.6%. For the same compound, the “Palmitic RBC Placebo-adjusted percent change from baseline” value (2 g/day vs placebo) was 0.5%, the “Ratio of AA/EPA RBC Placebo-adjusted percent change from baseline” value (2 g/day vs placebo) was −87.1% and the “Ratio of total ω-3/total ω-6 RBC Placebo-adjusted percent change from baseline” value (2 g/day vs placebo) was 60.4%. For the same compound, the “Stearic RBC Placebo-adjusted percent change from baseline” value (2 g/day vs placebo) was 1.6%, the “Monounsaturated, proportion of total fatty acids, RBCs, Change from baseline” value (2 g/day) was −0.1 (0.2) mol % and the “Saturated, proportion of total fatty acids, RBCs, Change from baseline” value (2 g/day) was −0.3 (0.3) mol %. The “Total ω-3, proportion of total fatty acids, RBCs, Change from baseline” value (2 g/day) was 2.6 (0.2) mol %, the “Total ω-6, proportion of total fatty acids, RBCs, Change from baseline” value (2 g/day) was −2.4 (0.4) mol % and the “AA RBC Change from baseline” value [1] was −20.0 (3.3). The “DHA RBC Change from baseline” value [1] was −5.5 (0.9), the “DPAn-3 RBC Change from baseline” value [1] was 21.2 (1.3) and the “Linoleic RBC Change from baseline” value [1] was −1.3 (3.5). For the same compound, the “Oleic RBC Change from baseline” value [1] was 3.1 (2.8), the “Palmitic RBC Change from baseline” value [1] was 4.9 (4.1) and the “Ratio of AA/EPA RBC Change from baseline” value [1] was −21.9 (0.8). The “Ratio of total ω-3/total ω-6 RBC Change from baseline” value [1] was 0.1 (0.01), the “Stearic RBC Change from baseline” value [1] was 3.9 (2.3) and the “AA RBC End-of-treatment” value (2 g/day) was 173.0. The “DHA RBC End-of-treatment” value (2 g/day) was 44.7, the “DPAn-3 RBC End-of-treatment” value (2 g/day) was 52.2 and the “Linoleic RBC End-of-treatment” value (2 g/day) was 153.1. The “Oleic RBC End-of-treatment” value (2 g/day) was 204.7, the “Palmitic RBC End-of-treatment” value (2 g/day) was 321.1 and the “Ratio of AA/EPA RBC End-of-treatment” value (2 g/day) was 6.4. The “Ratio of total ω-3/total ω-6 RBC End-of-treatment” value (2 g/day) was 0.3, the “Stearic RBC End-of-treatment” value (2 g/day) was 178.7 and the “Monounsaturated, proportion of total fatty acids, RBCs, End-of-treatment” value (2 g/day) was 19.9 (1.1) mol %. The “Saturated, proportion of total fatty acids, RBCs, End-of-treatment” value (2 g/day) was 43.5 (2.1) mol %, the “Total ω-3, proportion of total fatty acids, RBCs, End-of-treatment” value (2 g/day) was 8.5 (1.5) mol % and the “Total ω-6, proportion of total fatty acids, RBCs, End-of-treatment” value (2 g/day) was 28.1 (2.1) mol %. The “Monounsaturated, proportion of total fatty acids, RBCs, Placebo-adjusted percent change from baseline” value (4 g/day vs placebo) was −2.7%, the “Saturated, proportion of total fatty acids, RBCs, Placebo-adjusted percent change from baseline” value (4 g/day vs placebo) was 3.2% and the “Total ω-3, proportion of total fatty acids, RBCs, Placebo-adjusted percent change from baseline” value (4 g/day vs placebo) was 89.1%. For the same compound, the “Total ω-6, proportion of total fatty acids, RBCs, Placebo-adjusted percent change from baseline” value (4 g/day vs placebo) was −19.7%, the “AA RBC Placebo-adjusted percent change from baseline” value (4 g/day vs placebo) was −20.3% and the “DHA RBC Placebo-adjusted percent change from baseline” value (4 g/day vs placebo) was −6.6%. The “DPAn-3 RBC Placebo-adjusted percent change from baseline” value (4 g/day vs placebo) was 122.4%, the “Linoleic RBC Placebo-adjusted percent change from baseline” value (4 g/day vs placebo) was −11.1% and the “Oleic RBC Placebo-adjusted percent change from baseline” value (4 g/day vs placebo) was −3.7%. For the same compound, the “Palmitic RBC Placebo-adjusted percent change from baseline” value (4 g/day vs placebo) was −2.7%, the “Ratio of AA/EPA RBC Placebo-adjusted percent change from baseline” value (4 g/day vs placebo) was −98.5% and the “Ratio of total ω-3/total ω-6 RBC Placebo-adjusted percent change from baseline” value (4 g/day vs placebo) was 123.0%. For the same compound, the “Stearic RBC Placebo-adjusted percent change from baseline” value (4 g/day vs placebo) was −1.3%, the “Monounsaturated, proportion of total fatty acids, RBCs, Change from baseline” value (4 g/day) was −0.5 (0.2) mol % and the “Saturated, proportion of total fatty acids, RBCs, Change from baseline” value (4 g/day) was 0.5 (0.3) mol %. The “Total ω-3, proportion of total fatty acids, RBCs, Change from baseline” value (4 g/day) was 4.9 (0.2) mol %, the “Total ω-6, proportion of total fatty acids, RBCs, Change from baseline” value (4 g/day) was −4.9 (0.4) mol % and the “AA RBC Change from baseline” value [2] was −37.5. The “DHA RBC Change from baseline” value [2] was −6.4, the “DPAn-3 RBC Change from baseline” value [2] was 33.6 and the “Linoleic RBC Change from baseline” value [2] was −16.1. For the same compound, the “Oleic RBC Change from baseline” value [2] was −8.0, the “Palmitic RBC Change from baseline” value [2] was −6.3 and the “Ratio of total ω-3/total ω-6 RBC Change from baseline” value [2] was 0.2. The “Stearic RBC Change from baseline” value [2] was −1.4, the “AA RBC End-of-treatment” value (4 g/day) was 153.1 and the “DHA RBC End-of-treatment” value (4 g/day) was 39.0. For the same compound, the “DPAn-3 RBC End-of-treatment” value (4 g/day) was 61.9, the “Linoleic RBC End-of-treatment” value (4 g/day) was 132.7 and the “Oleic RBC End-of-treatment” value (4 g/day) was 188.8. For the same compound, the “Palmitic RBC End-of-treatment” value (4 g/day) was 301.2, the “Ratio of AA/EPA RBC End-of-treatment” value (4 g/day) was 3.6 and the “Ratio of total ω-3/total ω-6 RBC End-of-treatment” value (4 g/day) was 0.4. For the same compound, the “Stearic RBC End-of-treatment” value (4 g/day) was 170.5, the “Monounsaturated, proportion of total fatty acids, RBCs, End-of-treatment” value (4 g/day) was 19.8 (1.7) mol % and the “Saturated, proportion of total fatty acids, RBCs, End-of-treatment” value (4 g/day) was 44.2 (3.0) mol %. The “Total ω-3, proportion of total fatty acids, RBCs, End-of-treatment” value (4 g/day) was 10.2 (2.5) mol % and the “Total ω-6, proportion of total fatty acids, RBCs, End-of-treatment” value (4 g/day) was 25.8 (3.2) mol %.
